The supplement of paper PMC9663587

How the values were obtained:
THZ1 = compound: CN(C)C/C=C/C(=O)Nc1ccc(C(=O)Nc2cccc(Nc3ncc(Cl)c(-c4c[nH]c5ccccc45)n3)c2)cc1 [THZ1]; experiment: GR value, 72 h; higher = faster growth (1 = untreated, <0 = killing);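 note: breast cancer and non-malignant breast epithelial lines, nine half-log doses, viable cells counted by Hoechst and LIVE/DEAD dye imaging versus time-zero plates and DMSO controls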
[1] = compound: CCc1cnn2c(NCc3ccc[n+]([O-])c3)cc(N3CCCC[C@H]3CCO)nc12; experiment: as above
LEE011/Ribociclib = compound: CN(C)C(=O)c1cc2cnc(Nc3ccc(N4CCNCC4)cn3)nc2n1C1CCCC1 [LEE011/Ribociclib]; experiment: as above
[2] = compound: CCN1CCN(Cc2ccc(Nc3ncc(F)c(-c4cc(F)c5nc(C)n(C(C)C)c5c4)n3)nc2)CC1; experiment: as above
THZ531 [3] = compound: T1, CN(C)C/C=C/C(=O)Nc1ccc(C(=O)N2CCC[C@@H](Nc3ncc(Cl)c(-c4c[nH]c5ccccc45)n3)C2)cc1 [THZ531]; experiment: as above
YKL-5-124 = compound: C=CC(=O)Nc1ccc(C(=O)Nc2[nH]nc3c2CN(C(=O)N[C@H](CN(C)C)c2ccccc2)C3(C)C)cc1 [YKL-5-124]; experiment: as above
[4] = compound: CC(=O)c1c(C)c2cnc(Nc3ccc(N4CCNCC4)cn3)nc2n(C2CCCC2)c1=O; experiment: as above
BSJ-03-123 = compound: CC(=O)c1c(C)c2cnc(Nc3ccc(N4CCN(CCOCCOCCOCCNC(=O)COc5cccc6c5C(=O)N(C5CCC(=O)NC5=O)C6=O)CC4)cn3)nc2n(C2CCCC2)c1=O [BSJ-03-123]; experiment: as above
senexin b = compound: CN1CCN(C(=O)c2ccc3cc(CCNc4ncnc5ccc(C#N)cc45)ccc3c2)CC1 [senexin b]
Tivantinib/ARQ197 = compound: O=C1NC(=O)[C@@H](c2cn3c4c(cccc24)CCC3)[C@@H]1c1c[nH]c2ccccc12 [Tivantinib/ARQ197]
Ceritinib/LDK378 = compound: Cc1cc(Nc2ncc(Cl)c(Nc3ccccc3S(=O)(=O)C(C)C)n2)c(OC(C)C)cc1C1CCNCC1 [Ceritinib/LDK378]
Pictilisib/GDC0941 = compound: CS(=O)(=O)N1CCN(Cc2cc3nc(-c4cccc5[nH]ncc45)nc(N4CCOCC4)c3s2)CC1 [Pictilisib/GDC0941]
Paclitaxel = compound: CC(=O)O[C@H]1C(=O)[C@@]2(C)[C@H]([C@H](OC(=O)c3ccccc3)[C@]3(O)C[C@H](OC(=O)[C@H](O)[C@@H](NC(=O)c4ccccc4)c4ccccc4)C(C)=C1C3(C)C)[C@]1(OC(C)=O)CO[C@@H]1C[C@@H]2O [Paclitaxel]
BSJ-01-175 = compound: CN(C)C/C=C/C(=O)Nc1ccc(O[C@@H]2CCC[C@@H](Nc3ncc(Cl)c(-c4c[nH]c5ccccc45)n3)C2)cc1 [BSJ-01-175]
THZ531 [5] = compound: T1, THZ531
Rucaparib = compound: CNCc1ccc(-c2[nH]c3cc(F)cc4c3c2CCNC4=O)cc1 [Rucaparib]
AZD6738 = compound: C[C@@H]1COCCN1c1cc(C2([S@](C)(=N)=O)CC2)nc(-c2cc[nH]c3nccc2-3)n1 [AZD6738]
Cediranib/AZD2171 = compound: COc1cc2c(Oc3ccc4[nH]c(C)cc4c3F)ncnc2cc1OCCCN1CCCC1 [Cediranib/AZD2171]
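Throughout, for GR50, 72 h: breast cancer and non-malignant breast epithelial cell lines, Deep Dye Drop or Dye Drop imaging, nine half-log doses, GR normalized to time-zero plates and DMSO-only controls.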

Cell Line: EVSAT
- GR value (THZ1; 0.0001 µM): 1.02 GR
- GR value (THZ1; 0.0003162 µM): 0.993 GR
- GR value (THZ1; 0.001 µM): 0.991 GR
- GR value (THZ1; 0.003162 µM): 0.946 GR
- GR value (THZ1; 0.01 µM): 0.975 GR
- GR value (THZ1; 0.03162 µM): 0.705 GR
- GR value (THZ1; 0.1 µM): 0.232 GR
- GR value (THZ1; 0.3162 µM): -0.363 GR
- GR value ([1]; 0.0001 µM): 0.951 GR
- GR value ([1]; 0.0003162 µM): 0.967 GR
- GR value ([1]; 0.001 µM): 0.959 GR
- GR value ([1]; 0.003162 µM): 0.994 GR
- GR value ([1]; 0.01 µM): 1.01 GR
- GR value ([1]; 0.03162 µM): 0.299 GR
- GR value (LEE011/Ribociclib; 0.001 µM): 0.968 GR
- GR value (LEE011/Ribociclib; 0.003162 µM): 0.932 GR
- GR value (LEE011/Ribociclib; 0.01 µM): 0.956 GR
- GR value (LEE011/Ribociclib; 0.03162 µM): 0.939 GR
- GR value (LEE011/Ribociclib; 0.1 µM): 0.901 GR
- GR value (LEE011/Ribociclib; 0.3162 µM): 0.821 GR
- GR value (LEE011/Ribociclib; 1 µM): 0.862 GR
- GR value (LEE011/Ribociclib; 3.162 µM): 0.813 GR
- GR value (LEE011/Ribociclib; 10 µM): 0.616 GR
- GR value ([2]; 0.001 µM): 0.973 GR
- GR value ([2]; 0.003162 µM): 0.947 GR
- GR value ([2]; 0.01 µM): 0.933 GR
- GR value ([2]; 0.03162 µM): 0.853 GR
- GR value ([2]; 0.1 µM): 0.761 GR
- GR value ([2]; 0.3162 µM): 0.679 GR
- GR value ([2]; 1 µM): 0.521 GR
- GR value ([2]; 3.162 µM): 0.393 GR
- GR value ([2]; 10 µM): -0.545 GR
- GR value (THZ531 [3]; 0.0001 µM): 0.995 GR
- GR value (THZ531 [3]; 0.0003162 µM): 0.952 GR
- GR value (THZ531 [3]; 0.001 µM): 1 GR
- GR value (THZ531 [3]; 0.003162 µM): 1.01 GR
- GR value (THZ531 [3]; 0.01 µM): 1.07 GR
- GR value (THZ531 [3]; 0.03162 µM): 1.06 GR
- GR value (THZ531 [3]; 0.1 µM): 0.745 GR
- GR value (THZ531 [3]; 0.3162 µM): 0.0467 GR
- GR value (YKL-5-124; 0.001 µM): 0.327 GR
- GR value (YKL-5-124; 0.003162 µM): 0.292 GR
- GR value (YKL-5-124; 0.01 µM): 0.215 GR
- GR value (YKL-5-124; 0.03162 µM): 0.13 GR
- GR value (YKL-5-124; 0.1 µM): 0.0905 GR
- GR value (YKL-5-124; 0.3162 µM): 0.0313 GR
- GR value (YKL-5-124; 1 µM): 0.019 GR
- GR value (YKL-5-124; 3.162 µM): -0.0275 GR
- GR value (YKL-5-124; 10 µM): -0.412 GR
- GR value ([4]; 0.0003162 µM): 1.02 GR
- GR value ([4]; 0.001 µM): 1 GR
- GR value ([4]; 0.003162 µM): 0.994 GR
- GR value ([4]; 0.01 µM): 0.974 GR
- GR value ([4]; 0.03162 µM): 0.863 GR
- GR value ([4]; 0.1 µM): 0.792 GR
- GR value ([4]; 0.3162 µM): 0.752 GR
- GR value ([4]; 1 µM): 0.671 GR
- GR value ([4]; 3.162 µM): 0.637 GR
- GR value (BSJ-03-123; 0.001 µM): 0.994 GR
- GR value (BSJ-03-123; 0.003162 µM): 0.961 GR
- GR value (BSJ-03-123; 0.01 µM): 0.922 GR
- GR value (BSJ-03-123; 0.03162 µM): 0.885 GR
- GR value (BSJ-03-123; 0.1 µM): 0.851 GR
- GR value (BSJ-03-123; 0.3162 µM): 0.819 GR
- GR value (BSJ-03-123; 1 µM): 0.724 GR
- GR value (BSJ-03-123; 3.162 µM): 0.67 GR
- GR value (BSJ-03-123; 10 µM): 0.0632 GR
- GR50, 72 h (senexin b): > 10 µM
- GR50, 72 h (Tivantinib/ARQ197): 0.373 µM
- GR50, 72 h (Ceritinib/LDK378): 6.18 µM
- GR50, 72 h (Pictilisib/GDC0941): 0.621 µM
- GR50, 72 h (Paclitaxel): 0.00167 µM
- GR50, 72 h (BSJ-01-175): 0.146 µM
- GR50, 72 h (THZ531 [5]): 0.124 µM
- GR50, 72 h (Rucaparib): > 10 µM
- GR50, 72 h (AZD6738): > 10 µM
- GR50, 72 h (Cediranib/AZD2171): 9.9 µM

Cell Line: HCC38
- GR value (THZ1; 0.0001 µM): 1.1 GR
- GR value (THZ1; 0.0003162 µM): 1.05 GR
- GR value (THZ1; 0.001 µM): 1.05 GR
- GR value (THZ1; 0.003162 µM): 0.951 GR
- GR value (THZ1; 0.01 µM): 0.724 GR
- GR value (THZ1; 0.03162 µM): 0.452 GR
- GR value (THZ1; 0.1 µM): -0.224 GR
- GR value (THZ1; 0.3162 µM): -0.367 GR
- GR value (THZ1; 1 µM): -0.572 GR
- GR value ([1]; 0.0001 µM): 0.989 GR
- GR value ([1]; 0.0003162 µM): 1.05 GR
- GR value ([1]; 0.001 µM): 1.05 GR
- GR value ([1]; 0.003162 µM): 1.14 GR
- GR value ([1]; 0.01 µM): 0.761 GR
- GR value ([1]; 0.03162 µM): -0.374 GR
- GR value ([1]; 0.1 µM): -0.453 GR
- GR value ([1]; 0.3162 µM): -0.435 GR
- GR value ([1]; 1 µM): -0.453 GR
- GR value (LEE011/Ribociclib; 0.001 µM): 0.807 GR
- GR value (LEE011/Ribociclib; 0.003162 µM): 0.769 GR
- GR value (LEE011/Ribociclib; 0.01 µM): 0.692 GR
- GR value (LEE011/Ribociclib; 0.03162 µM): 0.727 GR
- GR value (LEE011/Ribociclib; 0.1 µM): 0.577 GR
- GR value (LEE011/Ribociclib; 0.3162 µM): 0.511 GR
- GR value (LEE011/Ribociclib; 1 µM): 0.532 GR
- GR value (LEE011/Ribociclib; 3.162 µM): 0.4 GR
- GR value (LEE011/Ribociclib; 10 µM): 0.239 GR
- GR value ([2]; 0.001 µM): 0.924 GR
- GR value ([2]; 0.003162 µM): 0.846 GR
- GR value ([2]; 0.01 µM): 0.738 GR
- GR value ([2]; 0.03162 µM): 0.452 GR
- GR value ([2]; 0.1 µM): 0.275 GR
- GR value ([2]; 0.3162 µM): 0.206 GR
- GR value ([2]; 1 µM): 0.122 GR
- GR value ([2]; 3.162 µM): -0.0767 GR
- GR value ([2]; 10 µM): -0.335 GR
- GR value (THZ531 [3]; 0.0001 µM): 0.922 GR
- GR value (THZ531 [3]; 0.0003162 µM): 1.03 GR
- GR value (THZ531 [3]; 0.001 µM): 1.04 GR
- GR value (THZ531 [3]; 0.003162 µM): 0.998 GR
- GR value (THZ531 [3]; 0.01 µM): 1.07 GR
- GR value (THZ531 [3]; 0.03162 µM): 1.02 GR
- GR value (THZ531 [3]; 0.1 µM): 0.765 GR
- GR value (THZ531 [3]; 0.3162 µM): 0.0587 GR
- GR value (THZ531 [3]; 1 µM): -0.335 GR
- GR value (YKL-5-124; 0.001 µM): 0.436 GR
- GR value (YKL-5-124; 0.003162 µM): 0.282 GR
- GR value (YKL-5-124; 0.01 µM): 0.219 GR
- GR value (YKL-5-124; 0.03162 µM): 0.111 GR
- GR value (YKL-5-124; 0.1 µM): 0.0509 GR
- GR value (YKL-5-124; 0.3162 µM): -0.0003 GR
- GR value (YKL-5-124; 1 µM): -0.0242 GR
- GR value (YKL-5-124; 3.162 µM): -0.079 GR
- GR value (YKL-5-124; 10 µM): -0.393 GR
- GR value ([4]; 0.0003162 µM): 1.03 GR
- GR value ([4]; 0.001 µM): 1.06 GR
- GR value ([4]; 0.003162 µM): 0.926 GR
- GR value ([4]; 0.01 µM): 0.889 GR
- GR value ([4]; 0.03162 µM): 0.604 GR
- GR value ([4]; 0.1 µM): 0.398 GR
- GR value ([4]; 0.3162 µM): 0.31 GR
- GR value ([4]; 1 µM): 0.239 GR
- GR value ([4]; 3.162 µM): 0.133 GR
- GR value (BSJ-03-123; 0.001 µM): 0.699 GR
- GR value (BSJ-03-123; 0.003162 µM): 0.719 GR
- GR value (BSJ-03-123; 0.01 µM): 0.468 GR
- GR value (BSJ-03-123; 0.03162 µM): 0.463 GR
- GR value (BSJ-03-123; 0.1 µM): 0.454 GR
- GR value (BSJ-03-123; 0.3162 µM): 0.419 GR
- GR value (BSJ-03-123; 1 µM): 0.341 GR
- GR value (BSJ-03-123; 3.162 µM): 0.306 GR
- GR value (BSJ-03-123; 10 µM): -0.0958 GR
- GR50, 72 h (senexin b): > 10 µM
- GR50, 72 h (Tivantinib/ARQ197): 0.309 µM
- GR50, 72 h (Ceritinib/LDK378): 1.83 µM
- GR50, 72 h (Pictilisib/GDC0941): 6.55 µM
- GR50, 72 h (Paclitaxel): 0.00147 µM
- GR50, 72 h (BSJ-01-175): 0.13 µM
- GR50, 72 h (THZ531 [5]): 0.177 µM
- GR50, 72 h (Rucaparib): > 10 µM
- GR50, 72 h (AZD6738): 2 µM
- GR50, 72 h (Cediranib/AZD2171): 1.59 µM
